The results in this text go back to patent US7112586B2, “Substituted diamine derivatives useful as motilin antagonists” (Ortho-McNeil Pharmaceutical, Inc., priority 2000, dated 2006).

What is called IC50 is the concentration needed to halve the response being measured.

SMILES strings stand for the structures.

The target of experiment [1] is T1, motilin receptor preparation (Human antrum tissue) (Homo sapiens, UniProt O43193).
T1 construct: Human antrum tissue from Analytical Biological Services (Wilmington, Del.) was prepared as a motilin receptor preparation; tissue Analytical Biological Services (Wilmington, Del.); host or cells: human antrum (stomach) muscle tissue, crude membrane homogenate
T1 sequence (O43193 whole entry): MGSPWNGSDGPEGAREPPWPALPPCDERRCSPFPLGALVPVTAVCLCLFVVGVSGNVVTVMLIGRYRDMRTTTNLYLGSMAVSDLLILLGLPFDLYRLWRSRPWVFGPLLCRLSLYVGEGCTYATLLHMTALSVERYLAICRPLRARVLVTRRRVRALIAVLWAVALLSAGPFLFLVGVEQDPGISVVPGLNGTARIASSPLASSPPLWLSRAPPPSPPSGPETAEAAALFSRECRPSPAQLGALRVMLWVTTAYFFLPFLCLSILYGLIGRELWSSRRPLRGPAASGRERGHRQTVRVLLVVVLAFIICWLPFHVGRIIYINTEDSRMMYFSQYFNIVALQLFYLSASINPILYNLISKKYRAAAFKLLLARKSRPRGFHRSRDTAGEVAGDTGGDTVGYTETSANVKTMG
Briefly: 125I-motilin binding to human antral stomach membranes. More on the design: % Inh (Human antrum): dose or concentration left out as unconfirmed. Particulars: for inhibition at 1 µM: read-out: Human Antrum % Inh @1 μM. The method, then: Human antrum tissue from Analytical Biological Services (Wilmington, Del.) was prepared as a motilin receptor preparation in the following manner. The muscle tissue was homogenized in 10 volumes of 50 mM Tris-Cl, 10 mM MgCl2, 0.1 mg/ml bacitracin, and 0.25 mM Peflabloc, pH 7.5) in a Polytron (29000 rpm, 4×15 seconds). The homogenate was centrifuged at 1000×g for 15 minutes and the supernatant discarded. The pellet was washed twice before being suspended in homogenizing buffer. The crude homogenate was resuspended through a 23 gauge needle before aliquoting and storing at −80° C. The human cloned receptor was prepared from HEK 293 cells overexpressed with the motilin receptor. Cell pellets were thawed and resuspended in 2–3 volumes of homogenizing buffer (10 mM Tris-Cl, 0.2 mM MgCl2, 5 mM KCl, 5 μg/ml aprotinin, leupeptin, and pepstatin A, and 50 μg/ml bacitracin, pH 7.5) and allowed to sit on ice for 15–20 minutes. The suspension was homogenized on ice in a Dounce type homogenizer using 15 strokes. Sucrose and EDTA were added to a final concentration of 0.25M and 1 mM, respectively, and mixed with a few additional strokes. The material was centrifuged at 400×g for 5 minutes, and the supernatant saved. The pellet was re-resuspended twice with 5 ml homogenizing buffer and rehomogenized as before, and the supernatants combined. The supernatant was centrifuged at 100000×g for 1 hour. The pellet is retained and resuspended with 5 ml of homogenizing buffer through a 19 g and 25 g needle. The suspension is aliquoted and stored at −80° C. until used. The binding assay contains the following components (50 mM HEPES, 5 mM MgCl2, and 1 mM EGTA, pH 7.0, 15 mg/ml BSA, 10 μg/ml aprotinin, leupeptin, and pepstatin A, 0.25 mg/ml bacitracin, and 10 mM benzamidine), ^125I-radiolabelled porcine motilin (50000–70000 cpm; specific activity 2000 Ci/mmol), test compound, and membrane protein. After 60 minutes at 30° C., the samples are placed on ice and centrifuged for 1 minute at 13000×g. The pellet is washed twice with 1 ml cold saline, and after removal of the final supernatant, the pellet at the bottom of the tube is counted in a gamma counter. Non-specific binding is measured by the inclusion of 1 μM unlabelled motilin. IC50 values were determined from Kaleidograph curves.
125I-Motilin Binding to Human Antral Stomach Membranes and the Human Cloned Receptor: […]

In experiment [2] the target is T2, human cloned receptor (motilin receptor) (Homo sapiens, UniProt O43193).
T2 construct: expressed in transfected cells; host or cells: HEK 293 cells
T2 sequence (O43193 whole entry): as above
Briefly: 125I-motilin binding to human cloned receptor (HEK 293 cells overexpressed with the motilin receptor). Particulars: HEK 293 membranes. The method, then:
Human antrum tissue from Analytical Biological Services (Wilmington, Del.) was prepared as a motilin receptor preparation in the following manner. The muscle tissue was homogenized in 10 volumes of 50 mM Tris-Cl, 10 mM MgCl2, 0.1 mg/ml bacitracin, and 0.25 mM Peflabloc, pH 7.5) in a Polytron (29000 rpm, 4×15 seconds). The homogenate was centrifuged at 1000×g for 15 minutes and the supernatant discarded. The pellet was washed twice before being suspended in homogenizing buffer. The crude homogenate was resuspended through a 23 gauge needle before aliquoting and storing at −80° C. The human cloned receptor was prepared from HEK 293 cells overexpressed with the motilin receptor. Cell pellets were thawed and resuspended in 2–3 volumes of homogenizing buffer (10 mM Tris-Cl, 0.2 mM MgCl2, 5 mM KCl, 5 μg/ml aprotinin, leupeptin, and pepstatin A, and 50 μg/ml bacitracin, pH 7.5) and allowed to sit on ice for 15–20 minutes. The suspension was homogenized on ice in a Dounce type homogenizer using 15 strokes. […] The pellet is washed twice with 1 ml cold saline, and after removal of the final supernatant, the pellet at the bottom of the tube is counted in a gamma counter. Non-specific binding is measured by the inclusion of 1 μM unlabelled motilin. IC50 values were determined from Kaleidograph curves. […]

Experiment [3] deals with motilin induced contraction. Briefly: Rabbit tissue bath procedure: inhibition of motilin induced contraction of duodenum segments. Particulars: 3 nM porcine motilin induced contraction, read-out: Tissues IC50. More on the design: species or system New Zealand White rabbit. The protocol: Rabbit Tissue Bath Procedure
One New Zealand White rabbit (Covance) of either sex was euthanized with an IV injection of Sleepaway. The duodenum was quickly excised, the lumen rinsed with saline to clean, and the tissue placed in cold, aerated (95% O2–5% CO2) Tyrodes buffer (NaCl 136.9 mM, KCl 2.7 mM, CaCl2 1.8 mM, MgCl2 1.04 mM, NaH2PO4 0.42 mM, NaHCO3 11.9 mM, Glucose 5.55 mM, pH 7.4). The duodenum, being kept moist at all times, was cleaned of any excess mesenteric tissue, and then cut into 3 cm segments starting at the proximal end. Sixteen tissue segments were usually prepared from each duodenum. These segments were tied on both ends with 3-0 silk suture (Ethicon). One end of the tissue was attached to an S-hook on a custom made glass support rod (Crown Glass Co., Somerville) and the rod plus tissue were placed in a 15 ml isolated tissue bath (Radnoti). The other end of the glass rod was attached to a Grass Force Displacement Transducer FT03. The tissue was maintained in room temperature Tyrodes buffer pH 7.4 and continually gassed with 95% O2— 5% CO2. The tissues were adjusted to 1.0 g resting tension and maintained at that tension throughout the equilibration period. An Ml2 Tissue Bath Computer was used to record and analyze data.
The tissues were washed twice during a 30 minute equilibration period and readjusted to 1 g resting tension as necessary. After equilibration the tissues were challenged with 3 μM Carbachol (Carbamoylcholine Chloride-Sigma). After maximal contraction was attained, the tissues were washed 3 times with Tyrodes. The tissues were allowed a 20 minute resting/equilibration period, during which time they were washed once and readjusted to 1 g resting tension. The tissues were challenged a second time with 3 μM Carbachol, and this contraction was considered as maximal, or 100% contraction. The tissues were washed 3 times, equilibrated for 10 minutes, washed again and readjusted to 1 g resting tension. Vehicle or test compound in 30% DMSO-50 mM HEPES was added directly to the bath and the tissues were incubated for 20 minutes. Test compounds and vehicle were run in duplicate.
The percent inhibition by test compound of the motilin induced contraction was calculated by first determining the ratio of the vehicle contractions with Motilin compared to the Carbachol contractions. This Tissue Adjustment Factor (TAF) was used to determine the value for the potential uninhibited contraction with Motilin for each tissue. The percent inhibition was then determined by dividing the actual Motilin contraction in treated tissues by the potential uninhibited contraction and subtracting this number from 1. IC50 values were determined by graphing results with Kaleidograph graphing program.

For a further experiment, the target named is T3, Motilin Receptor (Oryctolagus cuniculus, UniProt G1T803).
T3 construct: The muscle tissue was homogenized in 10 volumes of 50 mM Tris-Cl; from tissue; host or cells: rabbit colon smooth muscle, crude membrane homogenate
T3 sequence (G1T803 1-400): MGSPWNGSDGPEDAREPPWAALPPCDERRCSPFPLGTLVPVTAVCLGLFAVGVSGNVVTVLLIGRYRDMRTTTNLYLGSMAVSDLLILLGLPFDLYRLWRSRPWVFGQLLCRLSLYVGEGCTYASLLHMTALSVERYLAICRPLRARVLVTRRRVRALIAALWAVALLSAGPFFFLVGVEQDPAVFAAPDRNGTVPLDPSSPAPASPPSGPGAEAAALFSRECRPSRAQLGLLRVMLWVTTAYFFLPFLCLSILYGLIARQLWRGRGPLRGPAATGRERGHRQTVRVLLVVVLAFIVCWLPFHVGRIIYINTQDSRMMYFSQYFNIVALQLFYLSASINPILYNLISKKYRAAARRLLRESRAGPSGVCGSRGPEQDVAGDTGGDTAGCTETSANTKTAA
The experiment in a line: Motilin receptor binding, rabbit colon membranes, 125I porcine motilin. Particulars: rabbit colon membranes; 125I porcine motilin binding. More on the design: Rabbit Colon % Inh / inhibition / % Inh (Rabbit colon): dose or concentration left out as unconfirmed.

Turning to `CC[C@H](C)[C@H](NC(=O)[C@@H]1CCCN1C(=O)[C@@H](NC(=O)[C@@H](N)Cc1ccccc1)C(C)C)C(=O)N[C@@H](Cc1ccccc1)C(=O)N[C@H](C(=O)N[C@@H](Cc1ccc(O)cc1)C(=O)NCC(=O)N[C@@H](CCC(=O)O)C(=O)N[C@@H](CC(C)C)C(=O)N[C@@H](CCC(N)=O)C(=O)N[C@@H](CCCNC(=N)N)C(=O)N[C@@H](CCSC)C(=O)N[C@@H](CCC(N)=O)C(=O)N[C@@H](CCC(=O)O)C(=O)N[C@@H](CCCCN)C(=O)N[C@@H](CCC(=O)O)C(=O)N[C@@H](CCCNC(=N)N)C(=O)N[C@@H](CC(N)=O)C(=O)N[C@@H](CCCCN)C(=O)NCC(=O)N[C@@H](CCC(N)=O)C(=O)O)[C@@H](C)O` [Motilin], the IC50 turned out to be 1 ± 0.1 nM in experiment [1] (125I-Motilin binding to human antral stomach membranes) and 3.55 ± 0.05 nM in experiment [2].

Turning to `O=C(c1ccc(F)cc1)N(C[C@H]1CC[C@@H](N(Cc2ccccc2)C(=O)C(Cl)(Cl)Cl)C1)c1cccc(OCCN2CCCC2)c1` [compound 218], the inhibition at 1 µM in experiment [1] (human antrum membranes, @1 μM) stood at 98%. For the same molecule, the half-maximal inhibitory concentration (IC50) in experiment [3] is 35 nM.

Turning to `O=C(c1ccc(F)cc1)N(CC1CCCC(N(Cc2ccccc2)Cc2ccccc2)C1)c1cccc(OCCN2CCCC2)c1` (stereo not shown) [compound 222], on Motilin Receptor, the “% Inh (Rabbit colon)” value amounted to 83%. Further, in experiment [1] (human antrum membranes, 125I porcine motilin binding), the “% Inh (Human antrum)” value was 83%.

On to `CC(C)(C)C(=O)N(Cc1cccc(Cl)c1)C1CCCC(CN(C(=O)c2ccc(F)cc2)c2cccc(OCCN3CCCC3)c2)C1` (stereo not shown) [compound 226], for which the figures for the IC50 in experiment [1] (human antrum membranes) and in experiment [3] were 32 nM and 9 nM, respectively. Moreover, the inhibition at 1 µM in experiment [1] (human antrum membranes, @1 μM) was found to be 100%.

`O=C(c1ccc(F)cc1)N(C[C@H]1CC[C@@H](N(Cc2ccccc2)C(=O)C(Cl)(Cl)Cl)C1)c1cccc(OCCN2CCCC2)c1` [compound 231]: the “Human Antrum % Inh @1 μM” value in experiment [1] (human antrum membranes, @1 μM) is reported as 88%.
